Measured values from patent EP1019392B1, “TRICYCLIC AMIDES USEFUL FOR INHIBITION OF G-PROTEIN FUNCTION AND FOR TREATMENT OF PROLIFERATIVE DISEASES” (SCHERING CORPORATION, priority 1995, dated 1997).
Read-outs that look alike come from different tables or passages of the source.

Assays:
[1] = target: T1, farnesyl protein transferase (FPT) (Rattus norvegicus, UniProt Q02293+Q04631); test: In vitro enzyme assay: inhibition of farnesyl protein transferase (transfer of [3H]farnesyl to Ras-CVLS); format: biochemical; details: partially purified rat brain FPT, Ras-CVLS
T1 construct: were partially purified from rat brain by ammonium sulfate fractionation followed by Q-Sepharose; from tissue; host or cells: rat brain
Method: • 1. In vitro enzyme assays: Inhibition of farnesyl protein transferase and geranylgeranyl protein transferase. […] Human farnesyl protein transferase was also expressed in E. coli, using cDNA clones encoding both the a and b subunits. […] Human farnesyl protein transferase was partially-purified from the soluble protein fraction of E. coli as described above. […] Two forms of val^12-Ha-Ras protein were prepared as substrates for these enzymes, differing in their carboxy terminal sequence. One form terminated in cysteine-valine-leucine-serine (Ras-CVLS) the other in cystein-valine-leucine-leucine (Ras-CVLL). Ras-CVLS is a substrate for the farnesyl protein transferase while Ras-CVLL is a substrate for geranylgeranyl protein transferase I. The cDNAs encoding these proteins were constructed so that the proteins contain an amino-terminal extension of 6 histidine residues. Both proteins were expressed in Escherichia coli and purified using metal chelate affinity chromatography. The radiolabelled isoprenyl pyrophosphate substrates, [^3H]farnesyl pyrophosphate and [^3H]geranylgeranyl pyrophosphate, were purchased from DuPont/New England Nuclear. […] The reaction was allowed to proceed for 30 minutes at room temperature and then stopped with 0.5 ml of 4% sodium dodecyl sulfate (SDS) followed by 0.5 ml of cold 30% TCA. Samples were allowed to sit on ice for 45 minutes and precipitated Ras protein was then collected on GF/C filter paper mats using a Brandel cell harvester. […] Percent inhibition was calculated relative to the DMSO vehicle control. The geranylgeranyl protein transferase I assay was essentially identical to the farnesyl protein transferase assay described above, with two exceptions: [^3H]geranylgeranylpyrophosphate replaced farnesyl pyrophosphate as the isoprenoid donor and Ras-CVLL was the protein acceptor. […] Cell-Based Assay: Transient expression of val^12-Ha-Ras-CVLS and val^12-Ha-Ras-CVLL in COS monkey kidney cells: Effect of farnesyl protein transferase inhibitors on Ras processing and on disordered cell growth induced by transforming Ras. COS monkey kidney cells were transfected by electroporation with the plasmid pSV-SPORT (Gibco/BRL) containing a cDNA insert encoding either Ras-CVLS or Ras-CVLL, leading to transient overexpression of a Ras substrate for either farnesyl protein transferase or geranylgeranyl protein transferase I, respectively (see above). Following electroporation, cells were plated into 6-well tissue culture dishes containing 1.5 ml of Dulbecco's-modified Eagle's media (GIBCO, Inc.) supplemented with 10% fetal calf serum and the appropriate farnesyl protein transferase inhibitors. After 24 hours, media was removed and fresh media containing the appropriate drugs was re-added. 48 hours after electroporation cells were examined under the microscope to monitor disordered cell growth induced by transforming Ras. Cells expressing transforming Ras become more rounded and refractile and overgrow the monolayer, reminiscent of the transformed phenotype. Cells were then photographed, washed twice with 1 ml of cold phosphate-buffered saline (PBS) and removed from the dish by scraping with a rubber policeman into 1 ml of a buffer containing 25 mM Tris, pH 8.0; 1 mM ethylenediamine tetraacetic acid; 1 mM phenylmethylsulfonyl fluoride; […] leupeptin; and 0.1 mM pepstatin. Cells were lysed by homogenization and cell debris was removed by centrifugation at 2000 x g for 10 min. Cellular protein was precipitated by addition of ice-cold trichloroacetic acid and redissolved in […] of SDS-electrophoresis sample buffer. […] Proteins resolved on the gels were electroblotted onto nitrocellulose membranes for immunodetection. […] After washing, membranes were incubated for one hour at room temperature with a 1:5000 dilution of secondary antibody, rabbit anti-rat IgG conjugated to horseradish peroxidase, in PBS containing 1% fetal calf serum.

[2] = system: Ras-CVLS processing in COS monkey kidney cells; test: COS cell assay: inhibition of Ras-CVLS processing (Western blot); format: cell-based
Text: • 1. In vitro enzyme assays: Inhibition of farnesyl protein transferase and geranylgeranyl protein transferase. Both farnesyl protein transferase (FPT) and geranylgeranyl protein transferase (GGPT) I were partially purified from rat brain by ammonium sulfate fractionation followed by Q-Sepharose (Pharmacia, Inc.) anion exchange chromatography essentially as described by Yokoyama et al (Yokoyama, K., et al., (1991), A protein geranylgeranyltransferase from bovine brain: Implications for protein prenylation specificity, Proc. Natl. Acad. Sci USA 88: 5302-5306, the disclosure of which is incorporated herein by reference thereto). Human farnesyl protein transferase was also expressed in E. coli, using cDNA clones encoding both the a and b subunits. The methods used were similar to those published (Omer, C. et al., (1993), Characterization of recombinant human farnesyl protein transferase: Cloning, expression, farnesyl diphosphate binding, and functional homology with yeast prenyl-protein transferases, Biochemistry 32:5167-5176). Human farnesyl protein transferase was partially-purified from the soluble protein fraction of E. coli as described above. […] Two forms of val^12-Ha-Ras protein were prepared as substrates for these enzymes, differing in their carboxy terminal sequence. One form terminated in cysteine-valine-leucine-serine (Ras-CVLS) the other in cystein-valine-leucine-leucine (Ras-CVLL). Ras-CVLS is a substrate for the farnesyl protein transferase while Ras-CVLL is a substrate for geranylgeranyl protein transferase I. The cDNAs encoding these proteins were constructed so that the proteins contain an amino-terminal extension of 6 histidine residues. Both proteins were expressed in Escherichia coli and purified using metal chelate affinity chromatography. The radiolabelled isoprenyl pyrophosphate substrates, [^3H]farnesyl pyrophosphate and [^3H]geranylgeranyl pyrophosphate, were purchased from DuPont/New England Nuclear. Several methods for measuring farnesyl protein transferase activity have been described (Reiss et al 1990, Cell 62: 81; Schaber et al 1990, J. Biol. Chem. 265: 14701; Manne et al 1990, PNAS 87: 7541; and Barbacid & Manne 1993, U.S. Patent No. 5,185,248). […] The reaction was allowed to proceed for 30 minutes at room temperature and then stopped with 0.5 ml of 4% sodium dodecyl sulfate (SDS) followed by 0.5 ml of cold 30% TCA. Samples were allowed to sit on ice for 45 minutes and precipitated Ras protein was then collected on GF/C filter paper mats using a Brandel cell harvester. Filter mats were washed once with 6% TCA, 2% SDS and radioactivity was measured in a Wallac 1204 Betaplate BS liquid scintillation counter. Percent inhibition was calculated relative to the DMSO vehicle control. The geranylgeranyl protein transferase I assay was essentially identical to the farnesyl protein transferase assay described above, with two exceptions: [^3H]geranylgeranylpyrophosphate replaced farnesyl pyrophosphate as the isoprenoid donor and Ras-CVLL was the protein acceptor. […] Cell-Based Assay: Transient expression of val^12-Ha-Ras-CVLS and val^12-Ha-Ras-CVLL in COS monkey kidney cells: Effect of farnesyl protein transferase inhibitors on Ras processing and on disordered cell growth induced by transforming Ras. COS monkey kidney cells were transfected by electroporation with the plasmid pSV-SPORT (Gibco/BRL) containing a cDNA insert encoding either Ras-CVLS or Ras-CVLL, leading to transient overexpression of a Ras substrate for either farnesyl protein transferase or geranylgeranyl protein transferase I, respectively (see above). Following electroporation, cells were plated into 6-well tissue culture dishes containing 1.5 ml of Dulbecco's-modified Eagle's media (GIBCO, Inc.) supplemented with 10% fetal calf serum and the appropriate farnesyl protein transferase inhibitors. After 24 hours, media was removed and fresh media containing the appropriate drugs was re-added.

[3] = system: T24-BAG4 human bladder carcinoma cells expressing an activated H-ras gene; test: Cell Mat Assay, T24 tumor cells; format: cell-based; details: read-out: Tumor (T-24) IC50
[4] = system: DLD-1-BAG human colon carcinoma cells expressing as activated K-ras gene; test: Cell Mat Assay, DLD-1 tumor cells; format: cell-based
[5] = system: SW620-BAG human colon carcinoma cells expressing an activated K-ras gene; test: Cell Mat Assay, SW620 tumor cells; format: cell-based
[6] = system: Normal human HEPM fibroblasts; test: Cell Mat Assay, normal cell mat; format: cell-based; details: normal monolayer
[7] = system: DLD-1 (human colon carcinoma cells, ATCC # CCL 221); test: In Vivo Anti-Tumor Studies, subcutaneous DLD-1 tumors; parameters: species or system athymic nu/nu female mice; details: Mus musculus, DLD-1, po, QID, 4 weeks, range over the listed compounds
Text: Tumor cells (5 X 10^5 to 8 X 10^6) of DLD-1 (human colon carcinoma cells, ATCC # CCL 221) are innolculated subcutaneously into the flank of 5-6 week o;d athymic nu/nu female mice.

[8] = Homo sapiens, SW-620, Mat assay

Row | Structure (SMILES) | IC50 ([1]; Table 1, read-out: FPT IC50) [µM] | IC50 ([2]; Primates, COS) [µM] | IC50 ([3]; Homo sapiens) [µM] | IC50 ([4]; Homo sapiens, DLD-1, Mat assay) [µM] | IC50 [5, 8] [µM] | IC50 ([6]; Homo sapiens, Fibroblast) [µM] | IC50 [2] [µM] | IC50 ([1]; FPT IC50, Table 1) [µM] | IC50 [3] [µM] | IC50 ([4]; Mat assay) [µM] | IC50 ([5]; Mat assay) [µM] | IC50 [6] [µM] | inhibition in vivo at 10 mg/kg ([7]; 10 mg/kg p.o.) [%] | inhibition in vivo at 50 mg/kg ([7]; 50 mg/kg p.o.) [%]
1 | NC(=O)N1CCC(CC(=O)N2CCC(=C3c4ccc(Cl)c(Br)c4CCc4cc(Br)cnc43)CC2)CC1 (racemic) [Example 15] | 0.022 | 0.6 | 3.1 | 6.25 | > 6.25 | > 25 |  |  |  |  |  |  |  | 
2 | NC(=O)N1CCC(CC(=O)N2CCC(=C3c4ncc(Br)cc4CCc4cc(Cl)cc(Br)c43)CC2)CC1 (single isomer, unassigned) [Example 8A] |  |  | < 1.6 | < 1.6 | 3.1 | > 25 | > 1 |  |  |  |  |  |  | 
3 | NC(=O)N1CCC(CC(=O)N2CCN(C3c4ncc(Br)cc4CCc4cc(Cl)cc(Br)c43)CC2)CC1 (single isomer, unassigned) [Example 12B] |  |  |  |  |  |  | < 0.025 | 0.0025 | < 1.6 | 3.1 | 6.25 | > 25 | 7 to 50 | 35.4 to 83
4 | NC(=O)N1CCC(CC(=O)N2CCN(C3c4ncc(Br)cc4CCc4cc(Cl)cc(Br)c43)CC2)CC1 (single isomer, unassigned) [Example 12A] |  |  | < 1.6 | 2 | 4 | > 25 | 0.95 | > 0.094 |  |  |  |  |  | 
5 | O=C(Cc1cc[n+]([O-])cc1)N1CCC(C2c3ccc(Cl)c(Br)c3CCc3cc(Br)cnc32)CC1 (single isomer, unassigned) [Example 14] | 0.062 |  |  |  |  |  | > 1 |  | < 1.6 | 6.25 | > 12.5 | > 25 |  | 
6 | NC(=O)N1CCC(CC(=O)N2CCN([C@H]3c4ccc(Cl)cc4CCc4cc(Br)cnc43)CC2)CC1 [Example 17A] | 0.048 | 0.5 | 3.1 | 4 | 18 | > 25 |  |  |  |  |  |  |  | 
